Measurements as given in US10059996B2, “Susceptibility to and stratification for monoaminergic antidepressants” (priority 2012, dated 2018).
Entries after “also recorded” stand apart in the source; their conditions may differ. Structures can show the parent of a compound that is named as a salt.

Key:
[1] = test system: BDNF-gene exon-IV promoter construct; experiment: Luciferase-based reporter gene assay with BDNF-gene exon-IV promoter construct in SH-SY5Y cells; assay type: cell-based, human; details: 48 h incubation, fluoxetine 3, 5, 10 μM or venlafaxine 10, 30, 50 μM; for change of luciferase reporter gene activity (luminescence), methylated construct: Sss1-methylated BDNF-gene exon-IV promoter in pGL4.14, SH-SY5Y; for change of luciferase reporter gene activity (luminescence), unmethylated construct: unmethylated BDNF-gene exon-IV promoter in pGL4.14, SH-SY5Y, hydrochloride
SH-Sy5Y cells = experiment: CellTiter-Glo Luminescent Cell Viability Assay (cytotoxic concentrations); details: 10 μM, 30 μM, 50 μM Venlafaxine
Description: Cells were maintained at 37° C. in a humidified atmosphere of 5% CO2 in atmosphere. To determine cytotoxic concentrations of fluoxetine and venlafaxine by CellTiter-Glo Luminescent Cell Viability Assay (Promega, Madison, Wis.) 1.5×10^5 cells were plated in 96 well plates and grown for 24 hours. Three wells at a time were incubated with different amounts of fluoxetine hydrochloride or venlafaxine hydrochloride (both Sigma-Aldrich Germany, Taufkirchen), both solved in sterile deionized water at 4 mg/mL. […] After incubation for 24 hours cytotoxicity was documented by microscope photography and measured using a GloMax Multi+ Detection System (Promega, Madison, Wis.).

Row | Compound | change of luciferase reporter gene activity (luminescence), methylated construct [1] | change of luciferase reporter gene activity (luminescence), unmethylated construct [1] | cytotoxicity at the concentrations used (SH-Sy5Y cells)
1 | CNCCC(Oc1ccc(C(F)(F)F)cc1)c1ccccc1 (centres unmarked) [fluoxetine, fluoxetine hydrochloride] | did not change expression levels | decrease of reporter gene activity; also recorded: significant decrease of luciferase expression | 
2 | COc1ccc(C(CN(C)C)C2(O)CCCCC2)cc1 (centres unmarked) [venlafaxine, venlafaxine hydrochloride] | did not change expression levels | decrease of reporter gene activity; also recorded: significant decrease of luciferase expression | non-toxic
